Data on 53 compounds can be found in patent publication US6369057B1, “Quinoxalines, processes for their preparation and their use” (Aventis Pharma Deutschland GmbH, priority 1991, dated 2002).

Converted amounts (≈) assume the structure as drawn.

The first test has as its system HIV. Briefly: Test of preparations against HIV in cell culture (T-cell culture assay). The format is cell-based. Conditions: Human immunodeficiency virus 1, 72 h; lowest concentration where no giant cells were observed; HIV-infected lymphocytes from donor blood, 3 days at 37° C. How it is done: Test of Preparations Against HIV in Cell Culture
Complete medium additionally contains 20% fetal calf serum and 40 IU/ml recombinant interleukin 2.
Lymphocytes which have been isolated from fresh donor blood by means of Ficoll gradient centrifugation are cultured for 36 hours in complete medium with an addition of 2 μg/ml phytohemagglutinin (Wellcome) at 37° C. under 5% of CO2. After 10% of DMSO has been added, the cells are frozen at a density of 5 [formula]10^6 and stored in liquid nitrogen. For the test, the cells are defrosted, washed in RPMI medium and cultured for 3-4 days in the complete medium.
The test preparations were dissolved in DMSO at a concentration of 16.7 mg/ml and diluted in complete medium to 1 mg/ml.
0.4 ml of medium was introduced into 24-multiwell dishes. 0.1 ml of the dissolved preparation was added to the upper row of the dish, and, by transferring 0.1 ml portions, a geometric dilution series was established. Controls without preparation always contained 0.4 ml of complete medium containing 0.5% of DMSO. Lymphocyte cultures with a cell density of 5 [formula]10^5 cells/ml were infected by adding 1/50 volume supernatant from HIV-infected lymphocyte cultures. The titer of these culture supernatants was determined by end-point titration as 1-5 [formula]10^6 infectious units/ml. After 30 minutes' incubation at 37° C., the infected lymphocytes were removed by centrifugation and taken up in an equal volume of medium. From this cell suspension, 0.6 ml aliquots were transferred into all wells of the test plate. The mixtures were incubated for 3 days at 37° C.
The infected cell cultures were examined under the microscope for the presence of giant cells, which indicate active virus multiplication in the culture. The lowest concentration of preparation where no giant cells were observed was determined as inhibitory concentration against HIV. As a control, the supernatants from the culture plates were tested for the presence of HIV antigen with the aid of an HIV antigen test following the manufacturer's instructions (Organon).
In the case of `C[C@H]1C(=O)Nc2ccc(Cl)cc2N1C(=O)OCc1ccccc1` [Example III, (3S)-4-N-(Benzyloxycarbonyl)-6-chloro-3-methyl-3,4-di-hydroquinoxalin-2(1H)-one], the MIC turned out to be 0.8 µg/mL (≈ 2.42 µM).
Same read-out and setting: as for `CC(C)=CCN1c2ccccc2NC(=O)C1(C)C` [Example XX, 3,3-Dimethyl-4-N-(3-methyl-2-buten-1-yl)-3,4-dihydroquinoxalin-2(1H)-one], the figure is under 4 µg/mL; as for `CC(C)=CCN1c2cc(Cl)ccc2NC(=O)[C@H]1C` [VI-B, (3R)-6-Chloro-3-methyl-4-N-(3-methyl-2-buten-1-yl)-3,4-dihydroquinoxalin-2(1H)-one], 20 µg/mL (≈ 75.5 µM).

The same test, now with this note: lowest concentration where no giant cells were observed; HIV-infected lymphocytes from donor blood, 3 days at 37° C.
For `CC1C(=O)Nc2ccc(Cl)cc2N1Cc1ccccc1` (centres unmarked) [Example 3-21], the “T-cell culture assay MIC” value stood at 0.16 µg/mL.
As for `CC(C)COC(=O)N1c2cc(Cl)ccc2NC(=O)C1C` (centres unmarked) [Example 3-26], the “T-cell culture assay MIC” value is 0.4 µg/mL.
Take `C=C(C)OC(=O)N1c2cc(OCCOC)ccc2NC(=O)C1CC` (centres unmarked) [Example 3-33]: the “T-cell culture assay MIC” value amounted to 0.4 µg/mL.
Turning to `C=C(C)OC(=O)N1c2cc(Cl)ccc2NC(=O)C1CCSC` (centres unmarked) [Example 3-44], the “T-cell culture assay MIC” value is under 0.8 µg/mL.
Still for that read-out and setting: to `C=CCOC(=O)N1c2cc(Cl)ccc2NC(=O)C1CC(C)C` (centres unmarked) [Example 3-48] belongs under 0.8 µg/mL.
On to `CC(C)=CCN1c2c(Cl)cccc2NC(=O)C1C` (centres unmarked) [Example 3-52], for which the “T-cell culture assay MIC” value is over 0.8 µg/mL.
The same measure, in the same setting: as for `CC(C)=CCN1c2ccc(Cl)cc2NC(=O)C1C` (centres unmarked) [Example 3-53], the figure is over 0.8 µg/mL; as for `C=C(C)OC(=O)N1c2ccc(Cl)cc2NC(=O)C1CCSC` (centres unmarked) [Example 3-62], under 4.0 µg/mL.
Same read-out and setting: as for `CC(C)=CCN1c2ccc(F)cc2NC(=O)C1C` (centres unmarked) [Example 3-64], the figure is over 0.8 µg/mL; as for `C=C(C)OC(=O)N1c2ccc(F)cc2NC(=O)C1C` (centres unmarked) [Example 3-66], over 0.08 µg/mL; as for `CC(C)=CCN1c2cc(F)ccc2NC(=O)C1C` (centres unmarked) [Example 3-67], under 0.8 µg/mL.
Take `C=C(C)OC(=O)N1c2ccc(Oc3ccccc3)cc2NC(=O)C1C` (centres unmarked) [Example 3-73]: the “T-cell culture assay MIC” value was over 0.4 µg/mL.
For the compound `C=CCOC(=O)N1c2cc(Cl)ccc2NC(=O)C1C(C)CC` (centres unmarked) [Example 3-80], the “T-cell culture assay MIC” value amounted to 0.4 µg/mL.
Regarding `CCCCC(=O)N1c2cc(Cl)ccc2NC(=O)C1C` (centres unmarked) [Example 3-87], the “T-cell culture assay MIC” value was over 0.8 µg/mL.
Still for that read-out and setting: to `CCCC(=O)N1c2cc(Cl)ccc2NC(=O)C1C` (centres unmarked) [Example 3-88] belongs 0.8 µg/mL.
Turning to `CCC1(CC)C(=O)Nc2cc(C)ccc2N1CC=C(C)C` [Example 6-20], the “T-cell culture assay MIC” value is under 0.8 µg/mL.
As for `CC(C)=CCN1c2ccc(F)cc2NC(=O)C1(C)C` [Example 6-22], the “T-cell culture assay MIC” value is over 0.8 µg/mL.
`C=C(C)OC(=O)N1c2ccc(F)cc2NC(=O)C1(C)C` [Example 6-32]: the “T-cell culture assay MIC” value is under 0.08 µg/mL.
Still for that read-out and setting: to `C=C(C)OC(=O)N1c2ccc(OCC)cc2NC(=O)C1(C)C` [Example 6-33] belongs over 0.8 µg/mL; to `C=C(C)OC(=O)N1c2cc(C)c(C)cc2NC(=O)C1(C)C` [Example 6-36], under 0.8 µg/mL; to `C=C(C)OC(=O)N1c2ccc(Oc3ccccc3)cc2NC(=O)C1(C)C` [Example 6-39], 0.4 µg/mL.
On the same count and under the same terms, as for `CC1C(=O)Nc2ccc(Cl)cc2N1C1CCC1` (centres unmarked) [Example 10-4], the figure is 0.4 µg/mL.
In the case of `CC(C)CCN1c2cc(Cl)ccc2NC(=O)C1C` (centres unmarked) [Example 10-5], the “T-cell culture assay MIC” value was under 0.8 µg/mL.
On the same count and under the same terms, to `CC1C(=O)Nc2ccc(Cl)cc2N1Cc1ccc(Br)cc1` (centres unmarked) [Example 10-14] belongs under 0.8 µg/mL.
On the same count and under the same terms, to `CC=CCOC(=O)N1c2cc(Cl)ccc2NC(=O)C1C` (centres unmarked) [Example 11-1] belongs under 0.8 µg/mL; to `C#CCOC(=O)N1c2cc(Cl)ccc2NC(=O)C1C` (centres unmarked) [Example 11-3], under 0.8 µg/mL.
Still for that read-out and setting: to `CC#CCOC(=O)N1c2cc(Cl)ccc2NC(=O)C1C` (centres unmarked) [Example 11-4] belongs 0.8 µg/mL.

The target of the next test is T1, HIV reverse transcriptase (RT) (Human immunodeficiency virus type 1 group M subtype B, UniProt P03366).
T1 construct: The enzyme RT (from HIV cloned in E. coli); purchased HT-Biotechnology Ltd, Cambridge, UK; host or cells: E. coli
The test is described as follows: Assay for HIV reverse transcriptase inhibition (scintillation proximity assay). Conditions: RT from HIV cloned in E. coli; SPA, 60 minutes (37° C.). It counts as biochemical. As to the method:
Assay of the Substances for HIV Reverse Transcriptase Inhibition
The activity of reverse transcriptase (RT) was determined with the aid of a scintillation proximity assay (SPA).
The reagent kit for the RT-SPA was obtained from Amersham/Buchler (Braunschweig).
The enzyme RT (from HIV cloned in E. coli) originated from HT-Biotechnology Ltd, Cambridge, UK.
The assay was carried out using the manufacturer's (Amersham) protocol manual, with the following modifications: bovine serum albumin was added to the assay buffer to give an end concentration of 0.5 mg/ml the assay was carried out in Eppendorf reaction vessels, using 100 μl volume per batch the manufacturer's RT concentrate (5000 U/ml) was diluted in Tris-HCl buffer 20 mM; pH 7.2; 30% of glycerol, to an activity of 15 U per ml the incubation time for the mixtures was 60 minutes (37° C.) after stopping the reaction and “developing” with the bead suspension, 130 μl of mixture were transferred to 4.5 ml of Tris-HCl buffer, 10 mM; pH 7.4; 0.15 M NaCl, and the tritium activity was measured by means of a [formula]-counter.
For a pre-assay for inhibitory activity, the substances were dissolved in DMSO (stock solution c=1 mg/ml), and tested as a 10^−1, 10^−2, 10^−3, etc., dilution in DMSO.
To determine IC50 values, the inhibitor stock solutions were diluted further in Tris-HCl buffer, 50 mM, pH 8, and tested in suitable concentrations.
The concentration corresponding to a 50% enzyme inhibition was determined from a plot of RT activity versus log Clnh.
For the compound `C=C(C)OC(=O)N1c2cc(Cl)ccc2NC(=O)C1CCC` (centres unmarked) [Example 3-34], the “Reverse Transcriptase Assay IC50” value lay within 0.1 to 1 µg/mL.
As to `C=CCOC(=O)N1c2cc(Cl)ccc2NC(=O)C1CCC` (centres unmarked) [Example 3-35], the “Reverse Transcriptase Assay IC50” value fell in the range of 0.1 to 1 µg/mL.
Take `C=C(C)OC(=O)N1c2cc(Cl)ccc2NC(=O)C1C(C)C` (centres unmarked) [Example 3-37]: the “Reverse Transcriptase Assay IC50” value lay in the range of 0.1 to 1 µg/mL.
Take `CSCC1C(=O)Nc2ccc(Cl)cc2N1C(=O)OC(C)C` (centres unmarked) [Example 3-127]: the “Reverse Transcriptase Assay IC50” value was in the range of 0.01 to 0.1 µg/mL.
For the compound `C=C(C)OC(=O)N1c2cc(OC)ccc2NC(=O)C1CSC` (centres unmarked) [Example 3-128], the “Reverse Transcriptase Assay IC50” value was in the range of 0.01 to 0.1 µg/mL.
The same measure, in the same setting: as for `COc1ccc2c(c1)N(C(=O)OC(C)C)C(CSC)C(=O)N2` (centres unmarked) [Example 3-129], the figure is 0.01 to 0.1 µg/mL; as for `C=C(C)OC(=O)N1c2cc(Cl)ccc2NC(=O)C1(C)C` [Example 6-8], 0.1 to 1 µg/mL.
The same measure, in the same setting: as for `C=C(C)OC(=O)N1c2ccc(Cl)cc2NC(=O)C1(C)C` [Example 6-9], the entry is “approx. 1 μg/ml”; as for `C=CCOC(=O)N1c2cc(Cl)ccc2NC(=S)C1CC` (centres unmarked) [Example 7-15], 0.01 to 0.1 µg/mL; as for `C=C(C)OC(=O)N1c2cc(Cl)ccc2NC(=S)C1CCC` (centres unmarked) [Example 7-17], 0.01 to 0.1 µg/mL.
The same measure, in the same setting: as for `C=CCOC(=O)N1c2cc(Cl)ccc2NC(=S)C1CCC` (centres unmarked) [Example 7-18], the figure is 0.01 to 0.1 µg/mL; as for `CC1C(=S)Nc2ccc(Cl)cc2N1Cc1ccccn1` (centres unmarked) [Example 7-19], 0.01 to 0.1 µg/mL; as for `CC1C(=S)Nc2ccc(Cl)cc2N1Cc1cccnc1` (centres unmarked) [Example 7-20], 0.1 to 1 µg/mL.
Take `CCOC(=O)N1c2cc(Cl)ccc2NC(=S)C1(C)C` [Example 7-24]: the “Reverse Transcriptase Assay IC50” value was under 0.01 µg/mL.
Still for that read-out and setting: to `CCCOC(=O)N1c2cc(Cl)ccc2NC(=S)C1(C)C` [Example 7-25] belongs under 0.01 µg/mL; to `CCC1C(=S)Nc2ccc(Cl)cc2N1Cc1ccccn1` (centres unmarked) [Example 7-26], 0.01 to 0.1 µg/mL; to `CSCC1C(=S)Nc2ccc(Cl)cc2N1C(=O)OC(C)C` (centres unmarked) [Example 7-28], under 0.01 µg/mL.
The same measure, in the same setting: as for `CSCC1C(=S)Nc2ccc(Cl)cc2N1Cc1ccccn1` (centres unmarked) [Example 7-29], the figure is 0.01 to 0.1 µg/mL.
Same read-out and setting: as for `C=C(C)OC(=O)N1c2cc(OC)ccc2NC(=S)C1CSC` (centres unmarked) [Example 7-30], the figure is under 0.01 µg/mL; as for `COc1ccc2c(c1)N(C(=O)OC(C)C)C(CSC)C(=S)N2` (centres unmarked) [Example 7-31], under 0.01 µg/mL; as for `CC1C(=O)Nc2ccc(Cl)cc2N1Cc1ccsc1` (centres unmarked) [Example 10-34], 0.1 to 1 µg/mL.
As to `CC1C(=O)Nc2ccc(Cl)cc2N1C(=O)SCc1ccccc1` (centres unmarked) [Example 11-5], the “Reverse Transcriptase Assay IC50” value fell in the range of 0.1 to 1 µg/mL.
In the case of `C=CCSC(=O)N1c2cc(Cl)ccc2NC(=O)C1C` (centres unmarked) [Example 11-6], the “Reverse Transcriptase Assay IC50” value lay within 0.1 to 1 µg/mL.
